{"source": "patent US7507411B2", "about": "“Attenuated influenza NS1 variants” (University of Saskatchewan, priority 2006, dated 2009)", "key": {"[1]": {"tested_on": "SH3, SH2C and SH2N domains of the p85 subunit of PI3K", "type": "binding"}, "[2]": {"tested_on": "p85 subunit of PI3K", "type": "binding, human"}, "[3]": {"tested_on": "PI3K/Akt", "type": "cell-based, human"}}, "data": [{"substance": "NS1: Wild-type nonstructural protein 1 of influenza A H1N1 Puerto Rico/8/34 (SEQ ID NO:2)", "values": [{"measurement": "interaction of NS1 alone with SH2C domain of p85", "setting": "[1]", "value": "interacted"}, {"measurement": "interaction of NS1 alone with SH3 domain of p85", "setting": "[1]", "value": "interacted"}, {"measurement": "interaction of NS1 with SH2C domain of p85", "setting": "[1]", "value": "precipitated NS1"}, {"measurement": "interaction of NS1 with SH3 domain of p85", "setting": "[1]", "value": "precipitated NS1"}, {"measurement": "precipitation of NS1 by p85 antibody", "setting": "[2]", "value": "did precipitate NS1 protein"}, {"measurement": "Akt phosphorylation in NS1 expressing cells compared with vector", "setting": "[3]", "value": "greater degree of Akt phosphorylation"}]}]}
